Test results: US7371372B2, “Compositions comprising IMPDH inhibitors and uses thereof for treating HCV infection” (Vertex Pharmaceuticals Incorporated, priority 2004, dated 2008)
Values after ≈ are worked out from the molar mass of the structure shown. Where two headings read alike, the source gives them in different places. Marks after values point to notes of the source that are not given here.

Key:
[1] = tested on: peripheral blood lymphocytes (PBLs); assay: anti-proliferative activity (IC50ap): inhibition of proliferation of peripheral blood lymphocytes; format: cell-based; conditions: for IC50: Lymphocyte
Excerpt: Our algorithm predicts that there exists an optimal balance between the antiproliferative activity and the antiviral activity for ribavirin in combination with IFN. […] Per our algorithm described above, a “conversion factor” of 12.25 needs to be applied to the APQ to account for antiviral effects as distinct from the antiproliferative effects of ribavirin. Thus the corrected APQ (i.e. AAQ) for ribavirin ranges from 0.3 to 1.6.

[2] = anti-viral activity (IC50av); format: cell-based; conditions: for IC50: read-out: IC50av
Excerpt: The ratio of IC50av/IC50ap is the Conversion Factor (“CV”), useful in converting an anti-proliferative response into an anti-viral response.

HCV [3] = assay: Interferon alpha 2b (INTRON A) and VX-497 in naive HCV patients, four week study (VX-497-003); format: in vivo, human; conditions: for % HCV RNA drop: genotype 1 naive patients
Excerpt: Given the lower FQ for RBV in table 2 above, once again a surprising result of lower FQ giving better antiviral effects is seen.

HCV [4] = conditions: 1000 mg BID with PEGASYS, cited from earlier work
[5] = cited from earlier work; for Cmin: estimated from Brunet et al.
IMPDH = conditions: estimated from Brunet et al.; cited from earlier work
[6] = plasma concentrations Cavg and Cmin of the IMPDH inhibitor in human; format: in vivo
Excerpt: An optimal composition according to the present invention comprises alpha-interferon or a derivative thereof, an IMPDH inhibitor and a pharmaceutical carrier, wherein said IMPDH inhibitor is present in said composition in an amount such that a ratio of Cavg/Cmin is between 1 to 10; • wherein: • Cavg is average steady-state plasma concentration produced by said IMPDH inhibitor in said human; and • Cmin is estimated trough concentration produced by said IMPDH inhibitor in said human.
Cavg is equal to AUC/T, wherein AUC is the area under the plasma concentration-time curve during a dosing interval of time T. Cavg and Cmin are readily determined by known techniques in the art. See, e.g., Gibaldi, M. and Perrier, D., Pharmacokinetics, 2nd Ed., Marcel Dekker, Inc. (1982); Khakoo, S. et al., Br. J. Clin. Pharmacol.46, pp. 563-570 (1998); Glue, P., Sem. Liver. Dis. 19, pp. 17-24 (1999).

HCV [7] = conditions: cited from earlier work; for sustained response (SR): IFN + ribavirin, two phase III trials; for HCV RNA drop: Ribavirin 600 mg BID with INTRON A, SR data from McHutchison and Poynard (1999)
[8] = Ribavirin 200 mg BID, estimated from literature kinetics
[9] = Ribavirin 400 mg BID, estimated from literature kinetics

## COc1cc(NC(=O)Nc2cccc(CNC(=O)O[C@H]3CCOC3)c2)ccc1-c1cnco1 [VX-497]
[1]
  IC50ap: 0.045 µg/mL
[2]; anti-viral activity, micromolar IC50 converted to ng/mL using molecular weight 452
  IC50av: 0.14 µg/mL (≈ 0.309 µM)
HCV [3]; VX-497 100 mg TID with INTRON A for 4 weeks
  % HCV RNA drop: 53%
HCV [3]; VX-497 300 mg TID with INTRON A for 4 weeks
  % HCV RNA drop: 50%
HCV [3]; with 3 MU IFN alpha 2b tiw, four weeks, baseline HCV RNA as covariate
  reduction in viral load, 100 mg TID compared with 300 mg TID: higher reduction in viral load

## COc1c(C)c2c(c(O)c1C/C=C(\C)CCC(=O)OCCN1CCOCC1)C(=O)OC2 [mycophenolate mofetil]
HCV [4]; four-week analysis
  proportion of patients achieving significant antiviral effects, compared to PEGASYS and RBV: lower proportion of patients achieving significant antiviral effects

## COc1c(C)c2c(c(O)c1C/C=C(\C)CCC(=O)O)C(=O)OC2 [MPA, mycophenolic acid]
[5]; MPA 500 mg BID
  Cmin: 1630 ng/mL
[5]; MPA 500 mg BID, from Brunet et al.
  Cavg: 3163 ng/mL
[5]; MPA 750 mg BID
  Cmin: 1400 ng/mL
[5]; MPA 750 mg BID, from Brunet et al.
  Cavg: 3425 ng/mL
[5]; MPA 1000 mg BID
  Cmin: 2060 ng/mL
[5]; MPA 1000 mg BID, median AUC(0-t)/dosing interval from Brunet et al.
  Cavg: 3869 ng/mL
IMPDH
  IC50ap (ng/mL) in vivo: 10800 ng/mL (≈ 33.7 µM)
[1]; in vitro, read-out: IC50ap (ng/mL) in vitro
  IC50: 32 ng/mL
[2]; anti-viral activity, micromolar IC50 converted to ng/mL using molecular weight of 320
  IC50: 0.122 µg/mL (≈ 0.381 µM)
HCV [4]; non-responders to REBETRON with 90% genotype 1 patients
  % HCV RNA drop: 31^a, %
HCV [4]; relapsers on REBETRON with 79% genotype 1 patients
  % HCV RNA drop: 72^b %

## NC(=O)c1ncn([C@@H]2O[C@H](CO)[C@@H](O)[C@H]2O)n1 [Ribavirin, ribavirin]
[6]; [8]
  Cavg: 3542 ng/mL
  Cmin: 740 ng/mL
[6]; [9]
  Cavg: 7083 ng/mL
  Cmin: 1450 ng/mL
[6]; Ribavirin 600 mg BID, estimated from literature kinetics
  Cmin: 2250 ng/mL
[6]; Ribavirin 600 mg BID, estimated from single dose kinetics (Glue) and accumulation factor (Khakoo), AUC(0-t)/dosing interval
  Cavg: 19000 ng/mL
HCV [7]; genotype 1 patients
  sustained response (SR): around 30%
HCV [7]; non-genotype 1 patients
  sustained response (SR): ~60%
HCV [7]; MTD of ribavirin
  hemolytic anemia: significant hemolytic anemia
HCV [7]; genotype 1
  HCV RNA drop: 30%^a,
HCV [7]; non-genotype 1
  HCV RNA drop: 60%^b
HCV [7]; to 600 mg daily, with IFN
  change in SR on dropping the ribavirin dose by one-half: no significant change in SR
[1]; read-out: IC50ap
  IC50: 976 ng/mL
[2]
  IC50: 12 µg/mL (≈ 49 µM)
